Key:
[1] = tested on: C57BL/6 mice; assay: Kidney ischemia-reperfusion injury model (Example C.2); format: in vivo, mouse; conditions: dose of both 1 and 10 mg/kg, compared to vehicle control, FIG. 3
Description: FIG. 3: Efficacy of a compound disclosed herein in an animal model of kidney IRI.
Briefly, to test such utility of compounds disclosed herein, ischemia is induced in the kidney of 6-8 week old C57BL/6 mice by interruption of the blood supply to the kidney via reversible clipping of the Arteria renalis for 30 min, followed by reperfusion for a period of 24 h. Mice are treated with compound (or vehicle control) generally as described in Example C.1 at 1 hour prior to and four hours after abdomal closure and once daily over a period of 14 days. Markers to be investigated for IRI of kidney include […] creatinine levels in the serum along with histopathological analysis.

[2] = tested on: C57BL/6 mice; assay: Liver ischemia-reperfusion injury model (Example C.1); format: in vivo, mouse; conditions: single i.p. dose 10 mg/Kg
Description: FIG. 2: Efficacy of a compound disclosed herein in an animal model of liver IRI. […] The “Sham” bar represents the data from control animals that were treated to the same protocol but without atraumatic clipping. Errors shown are SEM. Significant differences are seen between IRI+vehicle compared to IRI+Cmpd, as well as between IRI+vehicle compared to Sham+vehicle.
Briefly, to test such utility of compounds disclosed herein, ischemia is induced in the liver of 6-8 week old C57BL/6 mice (Charles River) by midline laparotomy whereby the blood supply to the left and median lobes of the liver is interrupted via atraumatic clipping for 90 min, followed by reperfusion for a period of 24 h. After reperfusion, but prior to final abdominal closure, animals are treated with a single i.p. dose of the compound to be tested (10 mg/Kg), or with vehicle (DMSO) as negative control. […] The “Sham” bar represents the data from control animals that were treated to the same protocol but without atraumatic clipping.

[3] = tested on: SH-SY5Y cells; assay: Specificity: TNF-alpha-induced apoptosis in SH-SY5Y cells (Example B.3); format: cell-based, human; conditions: compound 1 μM, TNF-alpha 10 ng/mL, FIG. 1
Description: SH-SY5Y cells were propagated and seeded in 96-well plates, together with compound N-1, N-2, N-10 of Table 1-N (FIG. 1A), compound O/S-6 or O/S-3 of Table 1-O/S (FIG. 1B), or compound C-12, C-91, or C-205 of Table 1-C (FIG. 1C) (each 1 μM) and TNF-alpha was added (final concentration: 10 ng/mL) to induce apoptosis. The apoptosis and pan-caspase inhibitor z-vad (final concentration: 50 μM) and the necroptosis inhibitor Necrostatin-1 (Nec-1; final concentration: 5 μM) were used for comparison. Control wells were established with vehicle only (DMSO), with and without treatment with TNF-alpha to induce apoptosis. Cells were incubated, and cell survival was detected and quantified. Percentage cell survival after TNF-alpha-induced apoptosis is shown (error bars indicate standard deviation (SD)).
Briefly, SH-SY5Y cells were propagated and seeded in 96-well plates, together with the compound to be tested (1 μM), generally as described in Example B.1, except they were seeded at 1,000 cell/well and instead of BSO, TNF-alpha (Invitrogen) was added to a final concentration of 10 ng/mL to induce apoptosis. The apoptosis and pan-caspase inhibitor Z-VAD-fink (Enzo Life Science; final concentration 50 μM) and the necroptosis inhibitor Necrostatin-1 (Nec-1; Enzo Life Science; final concentration 5 μM) were used for comparison. Control wells were established with vehicle only (DMSO), with and without treatment with TNF-alpha to induce apoptosis. Cells were incubated, and cell survival was detected and quantified as described in Example B.1.

[4] = tested on: C57BL/6 mice; assay: Traumatic brain injury, controlled cortical impact model (Example C.5); format: in vivo, mouse; conditions: compared to vehicle control, 24 h after CCI, FIG. 4
Description: FIG. 4: Efficiency of a compound disclosed herein in an animal model of traumatic brain injury.
Briefly, to test such utility of compounds disclosed herein, male C57BL/6 mice are anesthetised prior to the induction of trauma. Core body temperature is maintained at 37° C. using a feedback-controlled heating pad connected to a rectal probe. To induce trauma, a craniotomy is prepared over the right parietal cortex. Controlled cortical impact (CCI) is delivered perpendicular to the surface of the brain with a custom-made CCI applicator for mice using the following parameters: 8 m/s velocity, 3 mm diameter, 1 mm brain displacement and 150 ms duration. Following CCI, the skull is closed by affixing the removed bone flap using veterinary-grade tissue glue (Vetbond, 3M, St. Paul, Minn.). Compounds are administered at 1 mg/Kg or 10 mg/Kg (dissolved in 40% PEG) 15 minutes after TBI induction and 40% PEG is included as vehicle control. The animals are recovered from anesthesia in an incubator heated to 33° C. Animals are sacrificed and the brain is removed 24 h after CCI and immediately frozen on crushed dry ice and stored at −80° C. […] The sections are stained with cresyl violet for quantifying the area of contused brain, and contusion volume is calculated and the effect of the compounds tested observed following analysis of such data.

Structure (SMILES): Clc1cccc(CNC2=Nc3ccccc3NC23CCNCC3)c1 [N-2]
- survival of mice suffering kidney-ischemic reperfusion injury [1]: Improved survival
- serum marker for liver cell damage GPT ([2]; liver IRI, compared to vehicle control, FIG. 2A): significant reduction
- serum marker for liver cell damage GOT ([2]; liver IRI, compared to vehicle control, FIG. 2B): significant reduction
- serum GPT and GOT, IRI+Cmpd compared to Sham+vehicle ([2]; FIG. 2): No significant difference
- Percentage cell survival after TNF-alpha-induced apoptosis [3]: Non-inhibition of apoptotic cell-death
- contusion volume in the brains of mice following traumatic brain injury [4]: trend of a (non-significant) positive effect

From patent US10647687B2, “Spiropyrazine derivatives as inhibitors of non-apoptotic regulated cell-death” (Helmholtz Zentrum München Deutsches Forschungszentrum für …, priority 2014, dated 2020)
